Values of other authors as cited in patent US20240156808A1, “Compositions and methods to improve the therapeutic benefit of suboptimally chemical compounds and biological therapies including substituted camptothecins such as irinotecan and topotecan for the treatment of benign and neoplastic hyperproliferative disease conditions, infections, inflammatory and …” (Edison Oncology, priority 2021, published 2024).

What was measured:
CES2 = biological target: T1, CES2 (Homo sapiens, UniProt O00748); conditions: CES2 versus CES1
T1 sequence (O00748 27-559): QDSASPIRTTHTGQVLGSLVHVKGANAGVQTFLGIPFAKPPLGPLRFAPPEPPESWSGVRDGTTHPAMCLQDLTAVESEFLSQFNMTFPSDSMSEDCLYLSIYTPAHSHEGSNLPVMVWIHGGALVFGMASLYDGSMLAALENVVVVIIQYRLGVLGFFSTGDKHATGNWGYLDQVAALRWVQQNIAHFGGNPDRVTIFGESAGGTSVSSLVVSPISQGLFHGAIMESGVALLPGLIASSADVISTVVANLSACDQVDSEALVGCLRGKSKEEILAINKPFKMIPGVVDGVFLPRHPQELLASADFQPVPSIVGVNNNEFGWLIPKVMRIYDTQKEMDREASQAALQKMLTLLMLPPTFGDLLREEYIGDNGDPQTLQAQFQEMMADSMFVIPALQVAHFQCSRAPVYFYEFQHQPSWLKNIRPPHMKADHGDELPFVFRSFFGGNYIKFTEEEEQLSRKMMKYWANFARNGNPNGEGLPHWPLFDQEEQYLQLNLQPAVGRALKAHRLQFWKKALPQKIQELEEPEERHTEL

Row | elimination half-life (SN-38) | time to peak plasma concentration (after infusion) | distribution half-life (in vivo) | SMILES | affinity of CES2 for irinotecan relative to CES1 (CES2) | fraction of irinotecan hydrolyzed to SN-38 (in the liver by CES1 and CES2, also in plasma by butyrylcholinesterase)
1 | – | – | – | CCc1c2c(nc3ccc(OC(=O)N4CCC(N5CCCCC5)CC4)cc13)-c1cc3c(c(=O)n1C2)COC(=O)[C@]3(O)CC [irinotecan, (S)-4,11-diethyl-3,4,12,14-tetrahydro-4-hydroxy-3,14-dioxo1H-pyrano[3′,4′:6,7]-indolizino[1,2-b]quinolin-9-yl-[1,4′bipiperidine]-1′-carboxylate] | 12.5 fold | 2-5%
2 | 6 to 32 h | two | about 8 minutes | CCc1c2c(nc3ccc(O)cc13)-c1cc3c(c(=O)n1C2)COC(=O)[C@]3(O)CC [SN-38] | – | –
